In patent US10688093B2, “Methods, compositions, and uses of novel Fyn kinase inhibitors” (priority 2015, dated 2020):

biological target: full-length recombinant human FYN A (Homo sapiens (Human), UniProt P06241); test: ADP-Glo Kinase Assay of FYN kinase inhibition; type: biochemical; details: secondary screen, re-synthesized and expanded compounds
Method in brief: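 ADP-Glo read-out of peptide phosphorylation after 90 min RT with 12.5 pmol ATP and 100 pg 12-mer substrate. Enzyme was N-GST full-length human FYN A from insect cells, 3 pg, pre-incubated 30 min with compound, 10 points from 10 μM top, 3-fold steps; IC50 from curve.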

Sequence of full-length recombinant human FYN A (P06241 whole entry): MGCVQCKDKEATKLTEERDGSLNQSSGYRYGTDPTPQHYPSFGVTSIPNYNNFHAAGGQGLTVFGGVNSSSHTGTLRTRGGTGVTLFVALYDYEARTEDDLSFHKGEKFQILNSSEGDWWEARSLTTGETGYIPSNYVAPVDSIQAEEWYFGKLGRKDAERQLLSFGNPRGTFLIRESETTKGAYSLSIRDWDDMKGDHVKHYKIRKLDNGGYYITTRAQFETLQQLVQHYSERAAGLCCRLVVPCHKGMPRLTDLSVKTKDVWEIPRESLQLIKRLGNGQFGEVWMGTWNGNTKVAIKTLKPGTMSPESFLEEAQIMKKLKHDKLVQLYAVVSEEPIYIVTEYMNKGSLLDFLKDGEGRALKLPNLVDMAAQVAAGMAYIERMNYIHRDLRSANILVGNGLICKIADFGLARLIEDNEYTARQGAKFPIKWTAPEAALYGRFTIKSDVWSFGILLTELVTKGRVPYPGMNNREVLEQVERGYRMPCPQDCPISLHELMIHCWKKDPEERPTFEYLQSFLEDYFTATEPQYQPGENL

Compound	IC50 [nM]
CCCNc1ccc2ncc(-c3ccncc3)n2n1 [BF000147056, N-propyl-3-(4-pyridyl)-imidazo[1,2-b]pyridazin-6-amine]	217
CCCNc1ccc2ncc(-c3cccc(O)c3)n2n1 [BF000147075, 3-[6-(propylamino)-imidazo[1,2-b]pyridazin-3-yl]phenol]	592
CCCNc1ccc2ncc(-c3ccc(O)c(OC)c3)n2n1 [BF000147080, 2-methoxy-4-[6-(propyl-amino)-imidazo[1,2-b]pyridazin-3-yl]phenol]	81.6
CC(=O)c1cccc(-c2cnc3ccc(NCc4ccc5c(c4)OCO5)nn23)c1 [BF000147140, 1-[3-[6-(1,3-benzodioxol-5-ylmethyl-amino)-imidazo[1,2-b]pyridazin-3-yl]phenyl]-ethanone]	3190
COc1cc(-c2cnc3ccc(NC4CCOCC4)nn23)ccc1O [BF000147168]	113
COc1cc(-c2cnc3ccc(NC4CCOCC4)nn23)cc(OC)c1OC [BF000147394, N-tetrahydro-pyran-4-yl-3-(3,4,5-trimethoxy-phenyl)-imidazo[1,2-b]pyridazin-6-amine]	503
COc1cc(-c2cc(-c3ccc(N4CCN(C)CC4)cc3)cnc2N)cc(OC)c1OC [BF000312520, 5-[4-(4-methyl-piperazin-1-yl)phenyl]-3-(3,4,5-trimethoxy-phenyl)-pyridin-2-amine]	232
COc1cc(-c2cc(-c3ccc(C(=O)NC4CC4)cc3)cnc2N)cc(OC)c1OC [BF000312541, 4-[6-amino-5-(3,4,5-trimethoxy-phenyl)-3-pyridyl]-N-cyclopropyl-benzamide]	377
COc1cc(-c2cc(-c3ccc(S(C)(=O)=O)cc3)cnc2N)cc(OC)c1OC [BF000312544, 5-(4-methyl-sulfonyl-phenyl)-3-(3,4,5-trimethoxy-phenyl)-pyridin-2-amine]	674
COc1cc(-c2cc(-c3ccc(N4CCN(C)CC4)cc3)cnc2N)ccc1O [BF000313028, 4-[2-amino-5-[4-(4-methylpiperazin-1-yl)phenyl]-3-pyridyl]-2-methoxy-phenol]	121
COc1cc(-c2cc(-c3ccc(C(N)=O)cc3)cnc2N)ccc1O [BF000313038, 4-[6-amino-5-(4-hydroxy-3-methoxy-phenyl)-3-pyridyl]-benzamide]	214
NC(=O)c1ccc(-c2cnc(N)c(-c3ccc(O)cc3)c2)cc1 [BF000313559, 4-[6-amino-5-(4-hydroxy-phenyl)-3-pyridyl]-benzamide]	1090
CS(=O)(=O)c1ccc(-c2cnc(N)c(-c3ccc(O)cc3)c2)cc1 [BF000313563, 4-[2-amino-5-(4-methyl-sulfonyl-phenyl)-3-pyridyl)-phenol]	1550
CN(C)C(=O)c1cccc(-c2cn3c(-c4ccc(O)cc4)cnc3cn2)c1 [BF000333343, 3-[3-(4-hydroxy-phenyl)-imidazo[1,2-a]pyrazin-6-yl]-N,N-dimethyl-benzamide]	871
CN(C)CCCNC(=O)c1ccc(-c2cn3c(-c4ccc(O)cc4)cnc3cn2)cc1 [BF000333874, N-[3-(dimethyl-amino)-propyl]-4-[3-(4-hydroxy-phenyl)-imidazo[1,2-a]pyrazin-6-yl]-benzamide]	705
CN1CCN(c2ccc(-c3cn4c(-c5ccc(O)cc5)cnc4cn3)cc2)CC1 [BF000333878, 4-[6-[4-(4-methyl-piperazin-1-yl)phenyl]-imidazo[1,2-a]pyrazin-3-yl]phenol]	465
COc1cc(-c2cnc3cnc(-c4ccc(C(=O)NCCCN(C)C)cc4)cn23)ccc1O [BF000334019, N-[3-(dimethyl-amino)-propyl]-4-[3-(4-hydroxy-3-methoxy-phenyl)-imidazo[1,2-a]pyrazin-6-yl]benzamide]	647
COc1cc(-c2cnc3cnc(-c4cccc(C(=O)NCCO)c4)cn23)ccc1O [BF000334020, N-(2-hydroxy-ethyl)-3-[3-(4-hydroxy-3-methoxy-phenyl)-imidazo[1,2-a]pyrazin-6-yl]benzamide]	1280
COc1cc(-c2cnc3cnc(-c4ccc(C(=O)NCCN(C)C)cc4)cn23)ccc1O [BF000334023, N-[2-(dimethyl-amino)ethyl]-4-[3-(4-hydroxy-3-methoxy-phenyl)-imidazo[1,2-a]pyrazin-6-yl]benzamide]	337
O=C(NCCO)c1ccc(-c2cn3c(-c4ccc(Oc5ccccc5)cc4)cnc3cn2)cc1 [BF000334032, N-(2-hydroxy-ethyl)-4-[3-(4-phenoxy-phenyl)-imidazo-[1,2-a]-pyrazin-6-yl]benzamide]	464
CN1CCN(c2ccc(-c3cnc(N)c(-c4ccc(O)cc4)c3)cc2)CC1 [BF000710044, 4-[2-amino-5-[4-(4-methyl-piperazin-1-yl)phenyl]-3-pyridyl]-phenol]	521
c1ccc(CNc2nn3c(-c4cccnc4)cnc3s2)cc1 [BF000714845, N-benzyl-5-(3-pyridyl)-imidazo[2,1-b][1,3,4]-thiadiazol-2-amine]	634
CN(C)C(=O)c1cccc(-c2cnc3sc(NCc4ccccc4)nn23)c1 [BF000714847, 3-[2-(benzyl-amino)-imidazo[2,1-b][1,3,4]-thiadiazol-5-yl]-N,N-dimethyl-benzamide]	1230
COc1cncc(-c2cnc3sc(NCc4ccccc4)nn23)c1 [BF000714862, N-benzyl-5-(5-methoxy-3-pyridyl)-imidazo[2,1-b][1,3,4]-thiadiazol-2-amine]	217

More lines, in order of falling IC50, values ahead:

IC50 [nM]	Compound
1310	COc1cc(-c2cc(-c3ccccc3)cnc2N)cc(OC)c1OC [BF000312489, 5-phenyl-3-(3,4,5-trimethoxy-phenyl)-pyridin-2-amine]
1000	COc1cc(-c2cc(-c3cccc(C(=O)NCCO)c3)cnc2N)cc(OC)c1OC [BF000312542, 3-[6-amino-5-(3,4,5-trimethoxy-phenyl)-3-pyridyl]-N-(2-hydroxy-ethyl)-benzamide]
898	CC(=O)Nc1cccc(-c2cnc(N)c(-c3ccc(O)cc3)c2)c1 [BF000313562, N-[3-[6-amino-5-(4-hydroxy-phenyl)-3-pyridyl]-phenyl]-acetamide]
740	O=C(NCCO)c1ccc(-c2cn3c(-c4ccc(O)cc4)cnc3cn2)cc1 [BF000333882, N-(2-hydroxy-ethyl)-4-[3-(4-hydroxy-phenyl)-imidazo[1,2-a]pyrazin-6-yl]benzamide]
721	COc1ccc(-c2cnc3ccc(NCc4cccs4)nn23)cc1OC [BF000146992, 3-(3,4-dimetboxy-phenyl)-N-(2-thienyl-methyl)-imidazo[1,2-b]pyridazin-6-amine]
709	COc1cc(-c2cc(-c3ccc(OCCCN(C)C)nc3)cnc2N)cc(OC)c1OC [BF000312521, 5-[6-(3-(dimethyl-amino)-propoxy]-3-pyridyl]-3-(3,4,5-trimethoxy-phenyl)-pyridin-2-amine]
624	COc1cc(-c2cnc3cnc(-c4cnn(C)c4)cn23)ccc1O [BF000333452, 2-methoxy-4-[6-(1-methyl-pyrazol-4-yl)-imidazo[1,2-a]pyrazin-3-yl]phenol]
562	COc1cc(-c2cc(-c3cccc(NS(C)(=O)=O)c3)cnc2N)cc(OC)c1OC [BF000312545, N-[3-[6-amino-5-(3,4,5-trimethoxy-phenyl)-3-pyridyl]-phenyl]-methane-sulfonamide]
526	COc1cc(-c2cc(-c3cccc(O)c3)cnc2N)cc(OC)c1OC [BF000312527, 3-[6-amino-5-(3,4,5-trimethoxy-phenyl)-3-pyridyl]-phenol]
494	COc1ccc(-c2cnc3ccc(NCc4ccccn4)nn23)cc1OC [BF000147233, 3-(3,4-dimethoxy-phenyl)-N-(2-pyridyl-methyl)-imidazo[1,2-b]pyridazin-6-amine]
494	COc1cc(-c2cc(-c3cccc(C(N)=O)c3)cnc2N)cc(OC)c1OC [BF000312539, 3-[6-amino-5-(3,4,5-trimethoxy-phenyl)-3-pyridyl]-benzamide]
486	CN(C)CCNC(=O)c1ccc(-c2cn3c(-c4ccc(O)cc4)cnc3cn2)cc1 [BF000333881, N-[2-(dimethyl-amino)-ethyl]-4-[3-(4-hydroxy-phenyl)-imidazo[1,2-a]pyrazin-6-yl]-benzamide]
458	COc1cc(-c2cc(-c3ccc(C(N)=O)cc3)cnc2N)cc(OC)c1OC [BF000312540, 4-[6-amino-5-(3,4,5-trimethoxy-phenyl)-3-pyridyl]-benzamide]
406	CCCNc1ccc2ncc(-c3cccc(C(C)=O)c3)n2n1 [BF000147088, 1-[3-[6-(propyl-amino)-imidazo[1,2-b]pyridazin-3-yl]phenyl]-ethanone]
355	c1ccc(CNc2ccc3ncc(-c4ccc5c(c4)OCO5)n3n2)nc1 [BF000146330, 3-(1,3-benzodioxol-5-yl)-N-(2-pyridyl-methyl)-imidazo[1,2-b]pyridazin-6-amine]
316	COc1cc(-c2cc(-c3ccc(S(C)(=O)=O)cc3)cnc2N)ccc1O [BF000313040, 4-[2-amino-5-(4-methyl-sulfolyl-phenyl)-3-pyridyl]-2-methoxy-phenol]
288	COc1cc(-c2cnc(N)c(-c3ccc(O)cc3)c2)cc(OC)c1OC [BF000313556, 4-[2-amino-5-(3,4,5-trimethoxy-phenyl)-3-pyridyl]-phenol]
285	CCCNc1ccc2ncc(-c3ccc(OC)c(OC)c3)n2n1 [BF000147061, 3-(3,4-dimethoxy-phenyl)-N-propyl-imidazo[1,2-b]pyridazin-6-amine]
222	CN(C)CCNC(=O)c1ccc(-c2cn3c(-c4ccc(Oc5ccccc5)cc4)cnc3cn2)cc1 [BF000334031, N-[2-(dimethyl-amino)ethyl]-4-[3-(4-phenoxy-phenyl)-imidazo[1,2-a]pyrazin-6-yl]-benzamide]
116	COc1cc(-c2cc(-c3cc(OC)c(OC)c(OC)c3)cnc2N)ccc1O [BF000313035, 4-[2-amino-5-(3,4,5-trimethoxy-phenyl)-3-pyridyl]-2-methoxy-phenol]
60.9	COc1cc(-c2cc(-c3ccc(N4CCNCC4)cc3)cnc2N)ccc1O [BF000707279, 4-[2-amino-5-(4-piperazin-1-ylphenyl)-3-pyridyl]-2-methoxy-phenol]
